Reference: patent US8669291B2, “Phenyl substituted cycloalkylamines as monoamine reuptake inhibitors” (Sunovion Pharmaceuticals Inc., priority 2007, dated 2014)
Where two headings read alike, the source gives them in different places.

Legend:
[1] = target: T1, human serotonin (5-HT) reuptake transporter (Homo sapiens, UniProt P31645); test: functional uptake assay, human 5-HT reuptake transporter; format: cell-based
T1 construct: expressed in transfected cells
Protocol: (§1) Compounds were tested for their inhibition of functional uptake of serotonin (5-HT), norepinephrine (NE), and dopamine (DA), in synaptosomes prepared from rat whole brain, hypothalamus, or corpus striatum, respectively, and/or using recombinant human transporters.

[2] = target: T2, human norepinephrine (NE) reuptake transporter (Homo sapiens, UniProt P23975); test: functional uptake assay, human NE reuptake transporter; format: cell-based; conditions: read-out: NE IC50
T2 construct: expressed in transfected cells
T2 sequence (P23975 whole entry): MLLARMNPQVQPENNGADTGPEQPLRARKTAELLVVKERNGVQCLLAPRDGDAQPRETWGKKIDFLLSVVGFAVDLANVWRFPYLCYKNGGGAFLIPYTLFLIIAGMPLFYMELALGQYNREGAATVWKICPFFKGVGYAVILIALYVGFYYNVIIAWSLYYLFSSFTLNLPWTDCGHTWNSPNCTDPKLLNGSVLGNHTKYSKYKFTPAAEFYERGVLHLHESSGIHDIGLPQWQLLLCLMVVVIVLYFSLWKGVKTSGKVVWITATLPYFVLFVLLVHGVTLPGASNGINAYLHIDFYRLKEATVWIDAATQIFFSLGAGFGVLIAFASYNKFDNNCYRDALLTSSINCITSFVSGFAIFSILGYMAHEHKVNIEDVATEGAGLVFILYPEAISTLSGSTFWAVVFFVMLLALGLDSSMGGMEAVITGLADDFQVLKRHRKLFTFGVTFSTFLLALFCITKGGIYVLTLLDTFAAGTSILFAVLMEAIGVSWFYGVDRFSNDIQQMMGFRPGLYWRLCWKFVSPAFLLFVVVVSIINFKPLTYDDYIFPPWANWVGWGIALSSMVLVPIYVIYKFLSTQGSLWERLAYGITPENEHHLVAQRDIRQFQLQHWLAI
Protocol: as §1

[3] = target: T3, human dopamine (DA) reuptake transporter (Homo sapiens, UniProt Q01959); test: functional uptake assay, human DA reuptake transporter; format: cell-based
T3 construct: expressed in transfected cells
T3 sequence (Q01959 whole entry): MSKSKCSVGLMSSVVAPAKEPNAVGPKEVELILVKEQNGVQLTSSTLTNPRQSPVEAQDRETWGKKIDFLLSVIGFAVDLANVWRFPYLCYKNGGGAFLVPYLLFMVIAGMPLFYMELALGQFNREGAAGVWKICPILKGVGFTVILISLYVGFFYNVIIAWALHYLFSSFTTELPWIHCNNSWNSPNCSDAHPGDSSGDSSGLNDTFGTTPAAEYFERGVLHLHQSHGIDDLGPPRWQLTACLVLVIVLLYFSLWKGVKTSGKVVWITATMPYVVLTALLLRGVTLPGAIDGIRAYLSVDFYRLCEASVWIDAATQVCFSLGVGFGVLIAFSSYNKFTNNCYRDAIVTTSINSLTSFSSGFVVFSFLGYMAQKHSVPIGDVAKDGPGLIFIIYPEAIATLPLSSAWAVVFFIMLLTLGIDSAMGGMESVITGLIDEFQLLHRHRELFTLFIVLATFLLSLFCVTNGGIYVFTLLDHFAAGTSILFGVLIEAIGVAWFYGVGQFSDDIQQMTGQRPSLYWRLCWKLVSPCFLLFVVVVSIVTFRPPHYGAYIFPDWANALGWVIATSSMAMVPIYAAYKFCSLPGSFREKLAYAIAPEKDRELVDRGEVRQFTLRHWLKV
Protocol: as §1

[4] = human metabolic stability (HLM t1/2); format: in vitro ADME; conditions: human liver microsomes
Excerpt: 4b. In Vitro PK Data (Human Metabolic Stability, Inhibition of CYP450 Enzymes, Inhibition of HERG Current)

[5] = in vivo; cited from earlier work
[6] = target: serotonin uptake sites (Homo sapiens, UniProt P31645); conditions: cited from earlier work
Chain of serotonin uptake sites (P31645 whole entry): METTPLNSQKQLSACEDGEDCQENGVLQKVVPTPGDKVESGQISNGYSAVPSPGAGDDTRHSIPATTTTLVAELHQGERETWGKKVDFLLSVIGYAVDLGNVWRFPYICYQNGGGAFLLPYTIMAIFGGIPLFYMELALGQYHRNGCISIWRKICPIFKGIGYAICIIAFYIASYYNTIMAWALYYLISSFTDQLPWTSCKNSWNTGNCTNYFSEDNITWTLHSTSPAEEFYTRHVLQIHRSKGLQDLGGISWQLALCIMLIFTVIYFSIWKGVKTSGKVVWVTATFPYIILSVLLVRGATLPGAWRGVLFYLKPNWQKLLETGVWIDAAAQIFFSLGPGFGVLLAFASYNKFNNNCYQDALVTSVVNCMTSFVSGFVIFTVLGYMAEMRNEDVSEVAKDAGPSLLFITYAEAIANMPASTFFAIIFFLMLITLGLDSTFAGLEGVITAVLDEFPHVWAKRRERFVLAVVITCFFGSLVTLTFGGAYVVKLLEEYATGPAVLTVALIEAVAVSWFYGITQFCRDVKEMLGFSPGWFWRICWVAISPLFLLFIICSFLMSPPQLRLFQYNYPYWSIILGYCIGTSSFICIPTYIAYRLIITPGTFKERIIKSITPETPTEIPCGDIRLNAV

[7] = Example 4a, human reuptake transporter, read-out: 5-HT IC50
[8] = Example 6 summary of selected in vitro data, read-out: 5-HT IC50
[9] = Example 4a, human reuptake transporter
[10] = Example 6 summary of selected in vitro data
[11] = Example 4a, human reuptake transporter, read-out: DA IC50
[12] = Example 6 summary of selected in vitro data, read-out: DA IC50

T1 sequence (P31645 whole entry): as above

SMILES	IC50 [1, 7] [nM]	IC50 [1, 8] [nM]	IC50 [2, 9] [µM]	IC50 [2, 10] [µM]	IC50 [3, 11] [nM]	IC50 [3, 12] [nM]	half-life [4] [h]	immobility in the tail suspension test [5]	affinity for the serotonin uptake sites versus the racemic compound [6]	IC50 ([1]; read-out: 5-HT IC50 nM, Example 6 summary of selected in vitro data) [nM]	IC50 ([3]; read-out: DA IC50 nM, Example 6 summary of selected in vitro data) [nM]
NC[C@@H]1CCCC[C@@]1(O)c1ccc(Cl)c(Cl)c1 (relative stereo) [Compound 9, cis-2-(aminomethyl)-1-(3,4-dichlorophenyl)cyclohexanol]	> 10000	> 10000	1 to 5	1 to 5	10 to 200	10 to 200	–	–	–	–	–
CN(C)C[C@H]1CCCC[C@]1(O)c1ccc(Cl)c(Cl)c1 (single isomer, unassigned) [Compound 1, cis-1-(3,4-dichlorophenyl)-2-((dimethylamino)methyl)cyclohexanol]	1 to 2000	1 to 2000	0.201 to 1	0.201 to 1	201 to 1000	201 to 1000	0.417 to 2.92	–	–	–	–
NCC1CCCCC1(O)c1ccc(Cl)c(Cl)c1 (single isomer, unassigned) [Compound 8, cis-2-(aminomethyl)-1-(3,4-dichlorophenyl)cyclohexanol]	7000 to 10000	7000 to 10000	> 5	> 5	201 to 1000	201 to 1000	–	–	–	–	–
Clc1ccc([C@@]23CNC[C@@H]2C3)cc1Cl (single isomer, unassigned) [DOV 21,947, (+)-1-(3,4-dichlorophenyl)-3-azabicyclo[3.1.0]hexane]	–	–	–	–	–	–	–	dose-dependent reduction in immobility	significantly greater affinity	–	–
C[C@@]1(CN)CCCC[C@@]1(O)c1ccc(Cl)c(Cl)c1 [Compound 15 A/B]	–	2000 to 7000	–	> 5	–	201 to 1000	–	–	–	–	–
CNC[C@]1(C)CCCC[C@@]1(O)c1ccc(Cl)c(Cl)c1 [Compound 16 A/B]	–	1 to 2000	–	> 5	–	10 to 200	–	–	–	–	–
CN(C)C[C@]1(C)CCCC[C@@]1(O)c1ccc(Cl)c(Cl)c1 [Compound 17 A/B]	–	2000 to 7000	–	> 5	–	201 to 1000	–	–	–	–	–
NC[C@]1(F)CCCC[C@@]1(O)c1ccc(Cl)c(Cl)c1 [Compound 21 A/B]	–	–	–	> 5	–	–	–	–	–	1 to 2000	10 to 200
CN(C)C[C@]1(F)CCCC[C@@]1(O)c1ccc(Cl)c(Cl)c1 [Compound 23 A/B]	–	2000 to 7000	–	> 5	–	201 to 1000	–	–	–	–	–
